47 compounds from patent US6376670B1, “Quinoline-indole antimicrobial agents, uses and compositions related thereto” (Sepracor Inc., priority 1997, dated 2002) can be followed below.

The test system of assay [1] is vancomycin-resistant Enterococcus spp. (VRE). Put plainly: Determination of MIC values (BHI broth, 96 well microtiter plate). Type of assay: cell-based. The settings on record: Enterococcus, VRE, 16 h, BHI broth, 37° C., overnight (about 16 hours); read-out: MIC VREF. The method, then: (§1) Stock solutions of compounds are prepared with a concentration of 10 mg/mL. These solutions are then diluted 1:4 to give a concentration of 2.5 mg/mL. The compounds are then serially diluted 1:2 for 6 iterations. The concentrations made for each compound are 2.5, 1.25, 0.625, 0.3125, 0.156, 0.078, and 0.039 mg/mL. A control sample (no compound) is run along with each compound tested. All dilutions are made in DMSO.
(§2) All wells of a 96 well microtiter plate are filled with 100 μL of BHI (Brain-Heart Infusion) broth. Columns on the plate are labeled 1-12, and rows are labeled A-H. Each column of wells is used to test one series of diluted compounds. Into each well of 100 μL of BHI broth, 1 μL of diluted compound is placed for a 1:100 dilution. This makes the final concentration of each drug series 25, 12.5, 6.25, 3.125, 1.56, 0.78, 0.39, and 0 μg/mL.
(§3) Test Organism: A sterile 15 mL screw cap tube is filled wth 3 mL of BHI broth. Next, 2-3 colonies of test organism are inoculated into the tube. The tube is then incubated at 37° C. in a CO2 (approx. 7%) atmosphere jar. The organisms are allowed to grow to the density of a 0.5 McFarland standard (10^8 cells/mL). The organism is then inoculated into each well of the microtiter plate containing the diluted compounds to be tested for MIC. The inoculum is 1 μL in volume and represents 10^5 to 10^6 cells/mL.
(§4) After inoculation the plates are covered and incubated at 37° C. and approx. 7-10% CO2 atmosphere overnight (about 16 hours). The plates are then observed for growth, the well with the lowest concentration of drug and no observable growth represents the well determining the MIC.

The subject of assay [2] is methicillin-resistant Staphylococcus aureus (MRSA). The assay is described as above. The settings on record: Staphylococcus aureus, MRSA, 16 h, BHI broth, 37° C., overnight (about 16 hours); read-out: MIC MRSA. It counts as cell-based. The protocol:
as §1, §2, §3, §4

As to `COc1ccc(NC(=O)N2CCN(C(=O)c3cc(-c4c[nH]c5ccc(Br)cc45)nc4ccccc34)CC2)c(OC)c1` [Example 63], the MIC in assay [1] and in assay [2] was greater than 25 µg/mL in each case.

Turning to `O=C(Nc1ccccc1C(F)(F)F)N1CCN(C(=O)c2cc(-c3c[nH]c4ccc(Br)cc34)nc3ccccc23)CC1` [Example 64], the minimum inhibitory concentration (MIC) in assay [1] and in assay [2] was greater than 25 µg/mL throughout.

Turning to `O=C(Nc1ccc(C(F)(F)F)cc1)N1CCN(C(=O)c2cc(-c3c[nH]c4ccc(Br)cc34)nc3ccccc23)CC1` [Example 65], the MIC (commonly the lowest concentration that inhibits growth of the organism) was less than 7 µg/mL in assay [1] and less than 25 µg/mL in assay [2].

As to `O=C(Nc1ccc(Cl)cc1C(F)(F)F)N1CCN(C(=O)c2cc(-c3c[nH]c4ccc(Br)cc34)nc3ccccc23)CC1` [Example 66], the MIC in assay [1] and in assay [2] was greater than 25 µg/mL in each case.

Regarding `O=C(Nc1ccc(Cl)c(C(F)(F)F)c1)N1CCN(C(=O)c2cc(-c3c[nH]c4ccc(Br)cc34)nc3ccccc23)CC1` [Example 67], the MIC in assay [1] and in assay [2] was less than 7 µg/mL each time.

As for `O=C(Nc1ccc(OC(F)(F)F)cc1)N1CCN(C(=O)c2cc(-c3c[nH]c4ccc(Br)cc34)nc3ccccc23)CC1` [Example 68], the MIC in assay [1] and in assay [2] was less than 7 µg/mL each time.

For `O=C(Nc1ccccc1OC(F)(F)F)N1CCN(C(=O)c2cc(-c3c[nH]c4ccc(Br)cc34)nc3ccccc23)CC1` [Example 69], the MIC in assay [1] and in assay [2] was greater than 25 µg/mL throughout.

Take `NCCCN1CCN(CCCNC(=O)c2cc(-c3c[nH]c4ccc(Br)cc34)nc3ccc(I)cc23)CC1` [Example 70]: the MIC in assay [1] is less than 25 µg/mL; in assay [2], less than 7 µg/mL.

`NCC(=O)NCc1ccc(CNC(=O)c2cc(-c3c[nH]c4ccc(Br)cc34)nc3ccccc23)cc1` [Example 71]: the MIC in assay [1] is greater than 25 µg/mL; in assay [2], less than 25 µg/mL.

In the case of `NCCC(=O)NCc1ccc(CNC(=O)c2cc(-c3c[nH]c4ccc(Br)cc34)nc3ccccc23)cc1` [Example 72], the MIC in assay [1] and in assay [2] was greater than 25 µg/mL in each case.

For `N[C@H](Cc1c[nH]cn1)C(=O)NCc1ccc(CNC(=O)c2cc(-c3c[nH]c4ccc(Br)cc34)nc3ccccc23)cc1` [Example 73], the MIC in assay [1] and in assay [2] was less than 25 µg/mL throughout.

In the case of `NCc1ccc(CNC(=O)c2cc(-c3c[nH]c4ccc(Br)cc34)nc3ccc(C#CCN4CCOCC4)cc23)cc1` [Example 74], the MIC in assay [1] was less than 25 µg/mL; in assay [2] it was less than 7 µg/mL.

As to `NCc1ccc(CNC(=O)c2cc(-c3c[nH]c4ccc(Br)cc34)nc3ccc(C#CCN4CCC(Cc5ccccc5)CC4)cc23)cc1` [Example 75], the MIC in assay [1] and in assay [2] was greater than 25 µg/mL throughout.

Turning to `O=C(O)c1cc(-c2c[nH]c3cccc(F)c23)nc2ccccc12` [Example 77], the MIC in assay [1] and in assay [2] was greater than 25 µg/mL each time.

With `O=C(O)c1cc(-c2c[nH]c3cc(F)ccc23)nc2ccccc12` [Example 78], the MIC in assay [1] and in assay [2] was greater than 25 µg/mL each time.

Regarding `NCc1ccc(CNC(=O)c2cc(-c3c[nH]c4cccc(F)c34)nc3ccccc23)cc1` [Example 79], the MIC in assay [1] and in assay [2] was greater than 25 µg/mL each time.

Consider `NCc1ccc(CNC(=O)c2cc(-c3c[nH]c4cc(F)ccc34)nc3ccccc23)cc1` [Example 80], for which the MIC in assay [1] and in assay [2] was less than 25 µg/mL each time.

Turning to `NCc1ccc(CNC(=O)c2cc(-c3ccccc3)nc3ccccc23)cc1` [Example 81], the MIC in assay [1] and in assay [2] was greater than 25 µg/mL each time.

On to `NCc1ccc(CNC(=O)c2cc(-c3ccoc3)nc3ccccc23)cc1` [Example 82], for which the MIC in assay [1] and in assay [2] was greater than 25 µg/mL in each case.

In the case of `NCc1ccc(CNC(=O)c2cc(-c3ccsc3)nc3ccc(Br)cc23)cc1` [Example 83], the MIC in assay [1] and in assay [2] was greater than 25 µg/mL each time.

In the case of `NCc1ccc(CNC(=O)c2cc(-c3cccnc3)nc3ccc(Br)cc23)cc1` [Example 84], the MIC in assay [1] is less than 25 µg/mL; in assay [2], less than 7 µg/mL.

As to `O=C(NCc1ccc(CNC(=O)c2cc(-c3c[nH]c4ccc(Br)cc34)nc3ccccc23)cc1)Nc1ccc(C(F)(F)F)cc1` [Example 85], the MIC was less than 25 µg/mL in assay [1] and less than 7 µg/mL in assay [2].

For `Cn1ccc(-c2cc(C(=O)NCc3ccc(CN)cc3)c3ccccc3n2)c1` [Example 86], the MIC in assay [1] and in assay [2] was greater than 25 µg/mL each time.

Regarding `NCc1ccc(CNC(=O)c2cc(-c3ccc4ccccc4c3)nc3ccccc23)cc1` [Example 87], the MIC in assay [1] and in assay [2] was less than 25 µg/mL in each case.

Regarding `N=C(N)NCCC[C@H](NC(=O)c1cc(-c2c[nH]c3ccc(Br)cc23)nc2ccccc12)C(=O)O` [Example 88], the MIC in assay [1] and in assay [2] was greater than 25 µg/mL in each case.

`O=C(NCc1ccc(CNC(=O)c2cc(-c3c[nH]c4ccc(Br)cc34)nc3ccccc23)cc1)Nc1cc(C(F)(F)F)cc(C(F)(F)F)c1` [Example 90]: the MIC in assay [1] was less than 7 µg/mL; in assay [2], less than 25 µg/mL.

With `NCc1ccc(CNC(=O)C2CC(c3c[nH]c4ccccc34)Nc3ccccc32)cc1` (stereo not shown) [Example 91], the MIC in assay [1] and in assay [2] was greater than 25 µg/mL throughout.

For the compound `CN(C)Cc1ccc(CNC(=O)c2cc(-c3c[nH]c4ccc(Br)cc34)nc3ccccc23)cc1` [Example 92], the MIC in assay [1] and in assay [2] was less than 25 µg/mL in each case.

Take `NCc1ccc(CNC(=O)c2cc(-c3ccccn3)nc3ccccc23)cc1` [Example 93]: the minimum inhibitory concentration (MIC) in assay [1] and in assay [2] was greater than 25 µg/mL throughout.

`NCc1ccc(CNC(=O)c2cc(-c3ccncc3)nc3ccc(Br)cc23)cc1` [Example 94]: the minimum inhibitory concentration (MIC) in assay [1] and in assay [2] was greater than 25 µg/mL throughout.

As for `Cc1ccc2nc(-c3ccncc3)cc(C(=O)NCc3ccc(CN)cc3)c2c1` [Example 95], the MIC in assay [1] and in assay [2] was greater than 25 µg/mL in each case.

For the compound `COc1cc2nc(-c3c[nH]c4ccc(Br)cc34)cc(C(=O)NCc3ccc(CN)cc3)c2cc1OC` [Example 98], the minimal inhibitory concentration (MIC) in assay [1] and in assay [2] was less than 25 µg/mL each time.

Turning to `NCc1ccc(CNC(=O)c2cc(-c3c[nH]c4ccc(Br)cc34)nc3ccc(CO)cc23)cc1` [Example 100], the MIC in assay [1] and in assay [2] was greater than 25 µg/mL throughout.

Regarding `NCc1ccc(CNC(=O)c2cc(-c3c[nH]c4ccc(Br)cc34)nc3ccc(C#Cc4ccccc4)cc23)cc1` [Example 101], the MIC in assay [1] and in assay [2] was less than 7 µg/mL throughout.

Take `COC(=O)c1ccc2nc(-c3c[nH]c4ccc(Br)cc34)cc(C(=O)NCc3ccc(CN)cc3)c2c1` [Example 105]: the MIC in assay [1] is less than 25 µg/mL; in assay [2] it was greater than 25 µg/mL.

With `NC1CCC(NC(=O)c2cc(-c3c[nH]c4ccc(Br)cc34)nc3ccccc23)CC1` (stereo not shown) [Example 106], the MIC in assay [1] and in assay [2] was less than 25 µg/mL in each case.

With `NCc1ccc(CNC(=O)c2cc(-c3c[nH]c4ccc(Br)cc34)nc3ccc(Br)cc23)cc1` [Example 120], the MIC in assay [1] and in assay [2] was less than 7 µg/mL throughout.

With `NCc1ccc(CNC(=O)c2cc(-c3c[nH]c4ccc(Br)cc34)nc3ccc(Cl)cc23)cc1` [Example 121], the MIC in assay [1] and in assay [2] was less than 7 µg/mL in each case.

Turning to `NCc1cccc(CNC(=O)c2cc(-c3c[nH]c4ccc(Br)cc34)nc3ccc(Br)cc23)c1` [Example 125], the minimum inhibitory concentration (MIC) in assay [1] and in assay [2] was less than 7 µg/mL in each case.

Take `O=C(c1cc(-c2c[nH]c3ccc(Br)cc23)nc2ccc(Br)cc12)N1CCCNCC1` [Example 126]: the MIC in assay [1] and in assay [2] was less than 7 µg/mL in each case.

For `Cc1cc2nc(-c3c[nH]c4ccc(Br)cc34)cc(C(=O)NCc3cccc(CN)c3)c2cc1C` [Example 129], the MIC in assay [1] and in assay [2] was less than 7 µg/mL in each case.

On to `Cc1cc2nc(-c3c[nH]c4ccc(Br)cc34)cc(C(=O)N3CCCNCC3)c2cc1C` [Example 130], for which the MIC in assay [1] and in assay [2] was less than 7 µg/mL throughout.

Consider `O=C(c1cc(-c2c[nH]c3ccc(Br)cc23)nc2ccc(Cl)cc12)N1CCCNCC1` [Example 135], for which the MIC in assay [1] and in assay [2] was less than 7 µg/mL in each case.

As for `NC(=O)c1cc(-c2c[nH]c3ccc(Br)cc23)nc2ccc(C#CCN3CCCCC3)cc12` [Example 137], the MIC in assay [1] and in assay [2] was less than 25 µg/mL in each case.

For `NCc1ccc(CNC(=O)c2cc(-c3csc4ccc(Cl)cc34)nc3ccc(I)cc23)cc1` [Example 140], the MIC in assay [1] was less than 25 µg/mL; in assay [2] it was greater than 25 µg/mL.

In the case of `O=C(O)c1cc(-c2c[nH]c3ccc(Br)cc23)nc2c(Cl)cccc12` [Example 141], the MIC in assay [1] and in assay [2] was greater than 25 µg/mL in each case.

Take `NC(=O)C(Cc1ccc2ccccc2c1)NC(=O)c1cc(-c2c[nH]c3ccccc23)nc2ccccc12` (stereo not shown) [Example 145]: the minimum inhibitory concentration (MIC) is less than 25 µg/mL in assay [1] and less than 7 µg/mL in assay [2].
